Biological target: T1, T7 RNA polymerase (Escherichia phage T7, UniProt P00573)
T1 construct: purchased
Experiment: Capped mRNA synthesis by in vitro transcription with cap analog (product amount, Nanodrop One)
Format: biochemical
Settings: per 1 mL reaction system; in vitro transcription at 37°C, 4 hours; purified mRNA quantified with Nanodrop One
From the text: • a) A plasmid was linearized and a DNA template was purified. • b) Capping analogs of the present invention and Comparative Example 1 Trilink CleanCap, cap analogs of Comparative Example 2 and Comparative Example 3 were used to synthesize mRNA by in vitro transcription, respectively. Comparative Example 1 was commercially purchased, and Comparative Example 2 and Comparative Example 3 were obtained according to the method disclosed in WO2022/036858. [drawing 172]
Table 1 In vitro transcription system
c) During the experiment, the above reagents were fully mixed and incubated at 37°C. After 4 hours, deoxyribonuclease (DNase) was added and incubated for 30 minutes to remove the DNA template. After digestion, LiCl solution was added, precooled and centrifuged at 1,6000 rpm for 15 minutes to remove the supernatant. 70% ethanol was added and centrifuged to remove the supernatant again, and then a certain amount of enzyme-free water was added for storage. […] Table 2 amount (mg) of final product obtained per 1 mL of mRNA synthesis reaction system

T1 sequence (P00573 whole entry): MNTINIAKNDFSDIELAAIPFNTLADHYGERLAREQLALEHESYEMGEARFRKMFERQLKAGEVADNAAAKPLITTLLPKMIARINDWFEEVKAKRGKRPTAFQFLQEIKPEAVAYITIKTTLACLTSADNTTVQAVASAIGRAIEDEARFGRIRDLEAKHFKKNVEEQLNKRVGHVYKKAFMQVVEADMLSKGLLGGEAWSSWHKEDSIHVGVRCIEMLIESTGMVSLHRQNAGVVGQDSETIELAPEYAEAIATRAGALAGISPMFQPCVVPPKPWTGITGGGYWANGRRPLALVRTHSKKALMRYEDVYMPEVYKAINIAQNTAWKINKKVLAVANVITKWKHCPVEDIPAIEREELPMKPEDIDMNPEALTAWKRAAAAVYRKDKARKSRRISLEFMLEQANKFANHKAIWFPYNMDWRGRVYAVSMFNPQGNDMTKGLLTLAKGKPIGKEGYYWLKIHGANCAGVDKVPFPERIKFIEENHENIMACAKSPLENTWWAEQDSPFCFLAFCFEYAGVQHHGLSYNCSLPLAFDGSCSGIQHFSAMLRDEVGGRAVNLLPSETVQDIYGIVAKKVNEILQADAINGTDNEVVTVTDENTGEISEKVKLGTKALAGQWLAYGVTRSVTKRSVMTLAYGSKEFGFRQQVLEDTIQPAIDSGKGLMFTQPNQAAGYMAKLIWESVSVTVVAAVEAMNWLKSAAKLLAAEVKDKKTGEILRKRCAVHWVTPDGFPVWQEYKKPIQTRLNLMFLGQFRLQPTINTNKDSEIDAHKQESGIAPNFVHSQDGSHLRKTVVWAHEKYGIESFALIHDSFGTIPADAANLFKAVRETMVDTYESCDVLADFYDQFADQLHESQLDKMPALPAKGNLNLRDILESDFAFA

C[n+]1cn([C@@H]2O[C@H](COP(=O)(O)OP(=O)(O)OP(=O)(O)OC[C@H]3O[C@@H](n4cnc5c(N)ncnc54)[C@H](O)[C@@H]3OP(=O)(O)OC[C@H]3O[C@@H](n4cnc5c(=O)[nH]c(N)nc54)[C@H](F)[C@@H]3O)[C@@H](O)[C@H]2O)c2nc(N)[nH]c(=O)c21 [Compound 8]
Product amount: amount (mg) of final product obtained per 1 mL of mRNA synthesis reaction system: 4.7 mg

C[n+]1cn([C@@H]2O[C@H](COP(=O)(O)OP(=O)(O)OP(=O)(O)OC[C@H]3O[C@@H](n4ccc(=O)[nH]c4=O)[C@H](F)[C@@H]3OP(=O)(O)OC[C@H]3O[C@@H](n4cnc5c(=O)[nH]c(N)nc54)[C@H](F)[C@@H]3O)[C@@H](O)[C@H]2O)c2nc(N)[nH]c(=O)c21 [Compound 68]
Product amount: amount (mg) of final product obtained per 1 mL of mRNA synthesis reaction system: 5.8 mg

— patent EP4644403A1, “HALOGEN-CONTAINING COMPOUNDS USED FOR CAPPING THE 5' END OF NUCLEIC ACID AND USE THEREOF” (Shenzhen Rhegen Biotechnology Co., Ltd., priority 2023, dated 2024)
